Test results published in patent US20220000967A1, “SYNTHETIC PEPTIDES INDUCING IMMUNOGENIC CELL DEATH” (SORBONNE UNIVERSITE, priority 2018, published 2022).

Legend:
L5178Y-R tumor [1] = assay: PKHB1 treatment of L5178Y-R tumor-bearing mice; assay type: in vivo, BALB/c mice
Procedure: The heparinized blood acquired from mice, was assessed using the Automatic Hematology Analyzer KontroLab. Blood smears were performed and fixed with methanol, stained with Wright's, and observed under the microscope to perform differential blood white cells counts.
(§1) Six-to-eight-week-old BALB/c female mice were maintained in controlled environmental conditions (25° C. and 12h light/dark cycle) and were supplied with rodent food (Science diet) and water ad libitum. • Prophylactic vaccinations: L5178Y-R cells (1.5, 3, 5×10^6) were treated with 300 μM of PKHB1 (CC100) for 2h. Cell death was confirmed using trypan blue staining and flow cytometry. Treated cells were inoculated subcutaneously in 100 μl PBS into the left hind of the leg, whereas 2×10^6 untreated control cells were inoculated into the right hind 7 days later (42). • Tumor establishment and measurement: Tumor was established by the subcutaneous injection of 1×10^6 L5178Y-R cells in 100 μL PBS, into the left hind of the leg. Tumor volume and weight were measured three times per week using a caliper (Digimatic Caliper Mitutoyo Corporation, Japan) and a digital scale (American Weigh Scale-600-BLK, USA). When the tumor reached 100 mm^3 the first PKHB1 injection (200 μg) was applied (day 0). Tumor volume was determined with the formula: tumor volume (mm3)=[…]*A*B*C. Long-term memory assay: Mice in complete remission after PKHB1 treatment, were rechallenged with 2×10^6 cells in 100 μL of PBS, into the opposite limb, and tumor volume was measured like described above.
Tissues and organs were obtained and fixed in 10% neutral formalin, embedded in paraffin, sectioned (5 µm thickness) and stained with H&E (Sigma-Aldrich, St Louis, Mo., USA). Histopathological analysis was done by an external veterinarian pathologist (National professional certificate 2593012). Immunohistochemistry was done using the appropriate primary antibody (CD4/CD8) and adding the biotinylated secondary antibody. Finally, hematoxylin-counterstained slides are coverslipped using resin as mounting solution and observed under microscopy.

CEM [2] = assay: Calreticulin exposure (flow cytometry, confocal microscopy); assay type: cell-based, human; conditions: CC50 of PKHB1, 2h
Procedure: (§2) 1×10^6 cells/mL were plated, treated with PKHB1, and incubated for 2h. Cells were harvested, washed, and stained with Calreticulin-PE (FMC-75, Enzo Life Science, Farmingdale, N.Y., USA) antibody (1:1000) in FACS buffer. After 1h of incubation in darkness at room temperature, cells were washed and resuspended in 100Lp of FACS buffer to be assessed by flow cytometry. For confocal microscopy (OlympusX70), poly-Llysine was added 24h to sterile coverslips and 1×10^6 cells/mL were seeded. PKHB1 was added and incubated for 2h. Then, the cells were stained with Calreticulin-PE antibody (1:500) and Hoechst, incubated 1h, and assessed by confocal microscopy.

MOLT-4 [3] = assay: as above; assay type: cell-based, human; conditions: CC50 of PKHB1, 2h
Procedure: as §2

L5178Y-R [4] = assay: as above; assay type: cell-based, murine; conditions: CC50 of PKHB1, 2h
Procedure: as §2

CEM [5] = assay: Western blot of HSP90, HSP70, CRT and HMGB1; assay type: cell-based, human; conditions: CC50 and CC100, 2h
Procedure: (§3) 1×10^6 cells/mL were seeded in a serum-free culture medium and treated with PKHB1 (CC50 and CC100 for each cell line) or left alone (Control) for 2h. Supernatants was recovered and lysed with lysis buffer (20 mM Tris pH 6.8, 2 mM EDTA, 300 mM NaCl and SDS 2%). Protein concentration was measured using the DC Protein Assay kit (Bio-Rad, Hercules, Calif., USA) and 50 μg of protein were loaded into SDS-PAGE gels. After blotting, nitrocellulose filters were probed with primary antibodies (1:1000) against HMGB1 (HAP46.5: sc-56698), HSP70 (C92F3A-5: sc-66048), HSP90 (F-8: SC-13119) and Calreticulin (F-4: sc373863). Anti-mouse or anti-rabbit-HRP served as secondary antibodies (Santa Cruz Biotechnology, CA, USA). Visualization was performed with ECL substrate system (Thermo Scientific, Waltham, Mass., USA).

MOLT-4 [6] = assay: Western blot of HSP90, HSP70, CRT and HMGB1; assay type: cell-based, human; conditions: CC50 and CC100, 2h
Procedure: as §3

L5178Y-R [7] = assay: Western blot of HSP90, HSP70, CRT and HMGB1; assay type: cell-based, murine; conditions: CC50 and CC100, 2h
Procedure: as §3

CEM [8] = assay: HMGB1 release assay (ELISA); assay type: cell-based, human; conditions: PKHB1 CC100, 2h
Procedure: (§4) Supernatants of untreated and treated (PKHB1 CC50 and CC100 for each cell line) leukemic cells (1×10^6 cells/mL) were used to measure extracellular HMGB1 using the HMGB1 ELISA kit for CEM, MOLT-4 or L5178Y-R cells (BioAssay ELISA kit Human or mouse respectively, US biological Life Science Salem, Mass., USA), following the manufacturer instructions. Absorbance was assessed at 450 nm.

MOLT-4 [9] = assay: HMGB1 release assay (ELISA); assay type: cell-based, human
Procedure: as §4

L5178Y-R [10] = assay: HMGB1 release assay (ELISA); assay type: cell-based, murine; conditions: PKHB1 CC100, 2h
Procedure: as §4

CEM [11] = assay: ATP release assay (luciferase bioluminescence); assay type: cell-based, human; conditions: CC50 and CC100, 2h
Procedure: (§5) 1×10^6 cells/mL were treated with PKHB1 (CC50 and CC100 for each cell lines) for 2h. Supernatants were used to assess extracellular ATP by a luciferase assay (ENLITEN kit, Promega, Madison Wis., USA) following the manufacturer's instructions. Bioluminescence was assessed in a microplate reader (Synergy HT, BioTek, Software Gen5, Winooski, Vt., USA) at 560 nm.

MOLT-4 [12] = assay: ATP release assay (luciferase bioluminescence); assay type: cell-based, human; conditions: CC50 and CC100, 2h
Procedure: as §5

L5178Y-R [13] = assay: ATP release assay (luciferase bioluminescence); assay type: cell-based, murine; conditions: CC50 and CC100, 2h
Procedure: as §5

L5178Y-R tumor [14] = assay: Long-term memory assay, rechallenge of mice in remission after PKHB1 treatment; assay type: in vivo, BALB/c mice; conditions: mice with complete regression after PKHB1-treatment, rechallenged with 2×10^6 L5178Y-R viable cells
Procedure: as §1

[15] = PKHB1-treated vs untreated tumor-bearing mice, trypan blue count

## CSCC[C@H](NC(=O)[C@@H](NC(=O)[C@@H](NC(=O)[C@H](Cc1ccc(O)cc1)NC(=O)[C@H](Cc1ccccc1)NC(=O)[C@H](CCCNC(=N)N)NC(=O)[C@H](N)CCCCN)C(C)C)C(C)C)C(=O)N[C@@H](Cc1c[nH]c2ccccc12)C(=O)N[C@@H](CCCCN)C(=O)N[C@H](CCCCN)C(=O)O [PKHB1, (D)K-R-F-Y-V-V-M-W-K-(D)K]
L5178Y-R tumor [1]; 200 μg PKHB1 intraperitoneally weekly, day 30
  tumor regression: complete tumor regression in most of the mice
L5178Y-R tumor [1]; PKHB1-treated tumor-bearing mice
  immunohistochemistry of tumor sections, CD4+ and CD8+ cells: presence of CD4+ and CD8+ cells
L5178Y-R tumor [1]; PKHB1-treated tumor-bearing mice vs healthy mice
  WBC differential: no significant difference
L5178Y-R tumor [1]; [15]
  cell number of BM, spleen and thymus cells: significant increase
  cell number of lymph nodes: significant decrease
CEM [2]
  CRT exposure: significant increase
MOLT-4 [3]
  CRT exposure: significant increase
L5178Y-R [4]
  CRT exposure: significant increase
CEM [5]
  expression of HSP90, HSP70, CRT and HMGB1 in cellular lysates: decrease
CEM [5]; vs untreated cells
  expression of HSP90, HSP70, CRT and HMGB1 in supernatants: increased
MOLT-4 [6]
  expression of HSP90, HSP70, CRT and HMGB1 in cellular lysates: decrease
MOLT-4 [6]; vs untreated cells
  expression of HSP90, HSP70, CRT and HMGB1 in supernatants: increased
L5178Y-R [7]
  expression of HSP90, HSP70, CRT and HMGB1 in cellular lysates: decrease
L5178Y-R [7]; vs untreated cells
  expression of HSP90, HSP70, CRT and HMGB1 in supernatants: increased
CEM [8]
  HMGB1 release compared to the untreated control: 6 fold
MOLT-4 [9]; PKHB1 CC50, 2h
  HMGB1 release with respect to the control: 8 fold
MOLT-4 [9]; PKHB1 CC100, 2h
  HMGB1 release compared to the untreated control: 4 fold
L5178Y-R [10]
  HMGB1 release compared to the untreated control: 2 fold
CEM [11]
  presence of ATP in supernatants: significantly augmented
MOLT-4 [12]
  presence of ATP in supernatants: significantly augmented
L5178Y-R [13]
  presence of ATP in supernatants: significantly augmented
L5178Y-R tumor [14]
  rechallenged mice that developed the tumor: ≈ 17%
  survival of re-challenged mice (Kaplan-Meier): 90%
